Twelve compounds from patent US20230382949A1 (HEPTARES THERAPEUTICS LIMITED, priority 2020, published 2023) can be followed below.

Read-outs that look alike come from different tables or passages of the source. Starred links: 1 amine or outer side, 2 acyl side, 3 side chain; linkers in the order of their positions; H or OH if unused. Non-standard residues stand in square brackets, D forms with d. Residues, ends and D or L forms follow the SMILES beside them. *: point of attachment. Ala(piperidin-4-yl) = O=C([C@H](CC1CCN([*:3])CC1)N[*:1])[*:2]; Malonyl(2,2-Me2,histaminyl) = CC(C)(C(=O)NCCc1cnc[nH]1)C(=O)*; dBip = N[C@H](Cc1ccc(-c2ccccc2)cc1)C(=O)O; Oic = O=C(O)[C@@H]1C[C@@H]2CCCC[C@@H]2N1; Phe(4-Br) = N[C@@H](Cc1ccc(Br)cc1)C(=O)O; His(τ-Me) = Cn1cnc(C[C@H](N)C(=O)O)c1; X5 = CC(C)(C(=O)NCc1c[nH]cn1)C(=O)*; NMeH = CN[C@@H](Cc1c[nH]cn1)C(=O)O; X1 = CC(C)(C(=O)NCCc1ccccc1)C(=O)*; X3 = CC(C)(C(=O)NCCc1ccccn1)C(=O)*; hArg = N=C(N)NCCCC[C@H](N)C(=O)O; dCha = N[C@H](CC1CCCCC1)C(=O)O; NMeL = CN[C@@H](CC(C)C)C(=O)O; Aib = CC(C)(N)C(=O)O; Bn = c1ccc(C*)cc1; Sar = CNCC(=O)O

Assay [1] concerns the target T1, human Apelin receptor (Homo sapiens, UniProt P35414).
T1 sequence (P35414 1-380): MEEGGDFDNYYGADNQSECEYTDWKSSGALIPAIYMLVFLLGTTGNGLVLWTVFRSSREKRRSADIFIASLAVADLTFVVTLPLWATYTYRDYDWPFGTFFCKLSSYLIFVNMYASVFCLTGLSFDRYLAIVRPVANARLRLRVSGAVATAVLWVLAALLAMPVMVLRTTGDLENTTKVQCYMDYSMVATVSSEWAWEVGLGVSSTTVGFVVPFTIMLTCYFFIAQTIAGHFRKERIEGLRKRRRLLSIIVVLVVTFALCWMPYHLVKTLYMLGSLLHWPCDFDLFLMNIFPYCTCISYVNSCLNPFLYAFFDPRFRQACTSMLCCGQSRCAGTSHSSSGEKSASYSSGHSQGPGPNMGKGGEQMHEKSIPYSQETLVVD
The experiment in a line: cAMP accumulation assay (HTRF), functional agonism of human Apelin receptors. In kind it is cell-based. The note with it: for Emax: CHO. An excerpt: cAMP functional assay. cAMP production was quantified using the Homogeneous Time-Resolved Fluorescence (HTRF) cAMP dynamic-2 assay (Cisbio, France).

The target in assay [2] is T2, human Apelin receptor (Homo sapiens, UniProt P35414).
T2 construct: host or cells: CHO-K1 cells
The experiment in a line: β-arrestin accumulation assay, functional agonism of human Apelin receptors. In kind it is cell-based. Summed up: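 After 16 h at 37° C., cells were exposed to increasing agonist concentrations in serum-free medium for 90 min at 37° C. Detection reagent added for 60 min in the dark; receptor activation read by fluorescence and EC50 derived from concentration-response curves.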
T2 sequence (P32121 whole entry partner, one chain of several): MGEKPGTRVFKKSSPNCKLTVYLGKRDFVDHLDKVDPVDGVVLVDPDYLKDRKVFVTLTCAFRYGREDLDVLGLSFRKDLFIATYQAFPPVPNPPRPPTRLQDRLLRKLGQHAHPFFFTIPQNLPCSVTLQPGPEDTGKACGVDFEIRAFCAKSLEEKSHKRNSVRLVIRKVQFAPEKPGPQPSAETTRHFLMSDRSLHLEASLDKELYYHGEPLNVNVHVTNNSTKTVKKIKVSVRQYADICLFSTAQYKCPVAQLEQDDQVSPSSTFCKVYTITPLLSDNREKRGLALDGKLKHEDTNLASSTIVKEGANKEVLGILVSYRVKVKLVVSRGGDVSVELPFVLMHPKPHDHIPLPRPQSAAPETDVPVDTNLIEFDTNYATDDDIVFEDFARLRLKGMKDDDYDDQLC

Setting [3] is: Human Apelin agonist cAMP assay, CHO cells stably expressing the human Apelin receptor, 3 uM forskolin.
Setting [4] is: pEC50, Human Apelin agonist cAMP assay, CHO cells stably expressing the human Apelin receptor, 3 uM forskolin.

Regarding `CC(C)C[C@H](NC(=O)[C@H](CCCNC(=N)N)NC(=O)[C@@H]1CCCN1C(=O)[C@@H](CCCNC(=N)N)NC(=O)[C@H](CCC(N)=O)NC(=O)C(C)(C)C(=O)NCCc1cnc[nH]1)C(=O)NC(C)(C)C(=O)N[C@@H](Cc1c[nH]cn1)C(=O)N[C@@H](CC1CCNCC1)C(=O)NCC(=O)N1[C@H](C(=O)N[C@@H](Cc2ccc(Br)cc2)C(=O)N2CCC[C@H]2C(=O)N[C@H](Cc2ccc(OCc3ccccc3)cc2)C(=O)O)C[C@@H]2CCCC[C@@H]21` [Example 42] ({Malonyl(2,2-Me2,histaminyl)}-Q[dR]PRL[Aib]H[Ala(piperidin-4-yl)]G[Oic][Phe(4-Br)]P[dY](Bn)-OH), at human Apelin receptor [1] (setting [3]), the Emax came out at 107%. Moreover, the EC50 on human Apelin receptor [1] (setting [4]) is 7.94 nM; on human Apelin receptor [2], 0.0794 µM.
As for `CC(C)C[C@H](NC(=O)[C@H](CCCNC(=N)N)NC(=O)[C@@H]1CCCN1C(=O)[C@@H](CCCNC(=N)N)NC(=O)[C@H](CCC(N)=O)NC(=O)C(C)(C)C(=O)NCCc1cnc[nH]1)C(=O)NC(C)(C)C(=O)N[C@@H](Cc1c[nH]cn1)C(=O)N[C@@H](CC1CCNCC1)C(=O)NCC(=O)N1[C@H](C(=O)N[C@@H](Cc2ccc(Br)cc2)C(=O)N2CCC[C@H]2C(=O)N[C@H](CC2CCCCC2)C(=O)O)C[C@@H]2CCCC[C@@H]21` [Example 43] ({Malonyl(2,2-Me2,histaminyl)}-Q[dR]PRL[Aib]H[Ala(piperidin-4-yl)]G[Oic][Phe(4-Br)]P[dCha]-OH), the Emax at human Apelin receptor [1] (read-out: Emax) was 95.7%. Further, the EC50 at human Apelin receptor [1] (read-out: pEC50 (converted)) was 100 nM; on human Apelin receptor [2], over 10 µM.
For `CC(C)C[C@H](NC(=O)[C@H](CCCNC(=N)N)NC(=O)[C@@H]1CCCN1C(=O)[C@@H](CCCNC(=N)N)NC(=O)[C@H](CCC(N)=O)NC(=O)C(C)(C)C(=O)NCCc1cnc[nH]1)C(=O)NC(C)(C)C(=O)N(C)[C@@H](Cc1c[nH]cn1)C(=O)N[C@@H](CC1CCNCC1)C(=O)NCC(=O)N1[C@H](C(=O)N[C@@H](Cc2ccc(Br)cc2)C(=O)N2CCC[C@H]2C(=O)N[C@H](Cc2ccc(-c3ccccc3)cc2)C(=O)O)C[C@@H]2CCCC[C@@H]21` [Example 44] ({Malonyl(2,2-Me2,histaminyl)}-Q[dR]PRL[Aib][NMeH][Ala(piperidin-4-yl)]G[Oic][Phe(4-Br)]P[dBip]-OH), the Emax on human Apelin receptor [1] (setting [3]) was found to be 34.7%. Also, the results for the EC50 at human Apelin receptor [1] (setting [4]) and on human Apelin receptor [2] were 50.1 nM and over 10 µM, respectively.
The corresponding values for `CC(C)C[C@H](NC(=O)[C@@H](CCCNC(=N)N)NC(=O)[C@@H]1CCCN1C(=O)[C@H](CCCCNC(=N)N)NC(=O)[C@H](CCC(N)=O)NC(=O)C(C)(C)C(=O)NCCc1ccccc1)C(=O)NC(C)(C)C(=O)N[C@@H](Cc1c[nH]cn1)C(=O)N[C@@H](CC1CCNCC1)C(=O)NCC(=O)N1[C@H](C(=O)N[C@@H](Cc2ccc(Br)cc2)C(=O)N2CCC[C@H]2C(=O)N[C@H](Cc2ccc(-c3ccccc3)cc2)C(=O)O)C[C@@H]2CCCC[C@@H]21` [Example 45] (X1-Q[hArg]P[dR]L[Aib]H[Ala(piperidin-4-yl)]G[Oic][Phe(4-Br)]P[dBip]-OH) are 59%, 39.8 nM and over 10 µM.
Taken in the same sequence, the figures for `CC(C)C[C@H](NC(=O)[C@@H](CCCNC(=N)N)NC(=O)[C@@H]1CCCN1C(=O)[C@H](CCCCNC(=N)N)NC(=O)[C@H](CCC(N)=O)NC(=O)C(C)(C)C(=O)NCCc1ccccn1)C(=O)NC(C)(C)C(=O)N[C@@H](Cc1c[nH]cn1)C(=O)N[C@@H](CC1CCNCC1)C(=O)NCC(=O)N1[C@H](C(=O)N[C@@H](Cc2ccc(Br)cc2)C(=O)N2CCC[C@H]2C(=O)N[C@H](Cc2ccc(-c3ccccc3)cc2)C(=O)O)C[C@@H]2CCCC[C@@H]21` [Example 46] (X3-Q[hArg]P[dR]L[Aib]H[Ala(piperidin-4-yl)]G[Oic][Phe(4-Br)]P[dBip]-OH) were 55%, 39.8 nM and over 10 µM.
The corresponding values for `CC(C)C[C@H](NC(=O)[C@@H](CCCNC(=N)N)NC(=O)[C@@H]1CCCN1C(=O)[C@H](CCCCNC(=N)N)NC(=O)[C@H](CCC(N)=O)NC(=O)C(C)(C)C(=O)NCCc1cnc[nH]1)C(=O)N[C@@H](CO)C(=O)NC(C)(C)C(=O)N[C@@H](CC1CCNCC1)C(=O)NCC(=O)N1[C@H](C(=O)N[C@@H](Cc2ccc(Br)cc2)C(=O)N2CCC[C@H]2C(=O)N[C@H](Cc2ccc(-c3ccccc3)cc2)C(=O)O)C[C@@H]2CCCC[C@@H]21` [Example 47] ({Malonyl(2,2-Me2,histaminyl)}-Q[hArg]P[dR]LS[Aib][Ala(piperidin-4-yl)]G[Oic][Phe(4-Br)]P[dBip]-OH) are 94.2%, 12.6 nM and over 1 µM.
For the compound `CC(C)C[C@@H](NC(=O)[C@@H](CCCNC(=N)N)NC(=O)[C@@H]1CCCN1C(=O)[C@H](CCCCNC(=N)N)NC(=O)[C@@H](CCC(N)=O)NC(=O)C(C)(C)C(=O)NCCc1cnc[nH]1)C(=O)NC(C)(C)C(=O)N[C@@H](Cc1c[nH]cn1)C(=O)N[C@@H](CC1CCNCC1)C(=O)N[C@H](C)C(=O)N1[C@H](C(=O)N[C@@H](Cc2ccc(Br)cc2)C(=O)N2CCC[C@H]2C(=O)N[C@H](Cc2ccc(-c3ccccc3)cc2)C(=O)O)C[C@@H]2CCCC[C@@H]21` [Example 48] ({Malonyl(2,2-Me2,histaminyl)}-[dQ][hArg]P[dR][dL][Aib]H[Ala(piperidin-4-yl)][dA][Oic][Phe(4-Br)]P[dBip]-OH), the maximal response (Emax) on human Apelin receptor [1] (setting [3]) is 33.5%. The EC50 at human Apelin receptor [1] (setting [4]) is 100 nM; on human Apelin receptor [2], over 10 µM.
`CC(C)C[C@H](NC(=O)[C@H](CCCNC(=N)N)NC(=O)[C@@H]1CCCN1C(=O)[C@@H](CCCNC(=N)N)NC(=O)[C@H](CCC(N)=O)NC(=O)C(C)(C)C(=O)NCCc1cnc[nH]1)C(=O)NC(C)(C)C(=O)N[C@@H](Cc1cn(C)cn1)C(=O)N[C@@H](CC1CCNCC1)C(=O)NCC(=O)N1[C@H](C(=O)N[C@@H](Cc2ccc(Br)cc2)C(=O)N2CCC[C@H]2C(=O)N[C@H](Cc2ccc(-c3ccccc3)cc2)C(=O)O)C[C@@H]2CCCC[C@@H]21` [Example 49] ({Malonyl(2,2-Me2,histaminyl)}-Q[dR]PRL[Aib][His(τ-Me)][Ala(piperidin-4-yl)]G[Oic][Phe(4-Br)]P[dBip]-OH) yielded an Emax on human Apelin receptor [1] (setting [3]) of 87.2%. Further, the EC50 at human Apelin receptor [1] (setting [4]) is 7.94 nM; at human Apelin receptor [2] it was over 10 µM.
For the compound `CC(C)C[C@H](NC(=O)[C@@H](CCCNC(=N)N)NC(=O)[C@@H]1CCCN1C(=O)[C@H](CCCCNC(=N)N)NC(=O)[C@@H](CCC(N)=O)NC(=O)C(C)(C)C(=O)NCCc1cnc[nH]1)C(=O)NC(C)(C)C(=O)N[C@@H](Cc1c[nH]cn1)C(=O)N[C@@H](CC1CCNCC1)C(=O)NCC(=O)N1[C@H](C(=O)N[C@@H](Cc2ccc(Br)cc2)C(=O)N2CCC[C@H]2C(=O)N[C@H](Cc2ccc(-c3ccccc3)cc2)C(=O)O)C[C@@H]2CCCC[C@@H]21` [Example 50] ({Malonyl(2,2-Me2,histaminyl)}-[dQ][hArg]P[dR]L[Aib]H[Ala(piperidin-4-yl)]G[Oic][Phe(4-Br)]P[dBip]-OH), the maximum response (Emax) on human Apelin receptor [1] (setting [3]) came to 56.5%. Also, the EC50 on human Apelin receptor [1] (setting [4]) is 39.8 nM; at human Apelin receptor [2], over 10 µM.
Compound `CC(C)C[C@@H](C(=O)NC(C)(C)C(=O)N[C@@H](Cc1c[nH]cn1)C(=O)N[C@@H](CC1CCNCC1)C(=O)NCC(=O)N1[C@H](C(=O)N[C@@H](Cc2ccc(Br)cc2)C(=O)N2CCC[C@H]2C(=O)N[C@H](Cc2ccc(-c3ccccc3)cc2)C(=O)O)C[C@@H]2CCCC[C@@H]21)N(C)C(=O)[C@@H](CCCNC(=N)N)NC(=O)[C@@H]1CCCN1C(=O)[C@H](CCCCNC(=N)N)NC(=O)[C@H](CCC(N)=O)NC(=O)C(C)(C)C(=O)NCCc1cnc[nH]1` [Example 51] ({Malonyl(2,2-Me2,histaminyl)}-Q[hArg]P[dR][NMeL][Aib]H[Ala(piperidin-4-yl)]G[Oic][Phe(4-Br)]P[dBip]-OH) displayed an Emax on human Apelin receptor [1] (setting [3]) of 27.6%. For the same compound, the EC50 at human Apelin receptor [1] (setting [4]) was 79.4 nM; on human Apelin receptor [2] it was over 10 µM.
Regarding `CC(C)C[C@H](NC(=O)[C@@H](CCCNC(=N)N)NC(=O)[C@@H]1CCCN1C(=O)[C@H](CCCCNC(=N)N)NC(=O)[C@H](CCC(N)=O)NC(=O)C(C)(C)C(=O)NCCc1cnc[nH]1)C(=O)NC(C)(C)C(=O)N[C@@H](Cc1c[nH]cn1)C(=O)N[C@@H](CC1CCNCC1)C(=O)N(C)CC(=O)N1[C@H](C(=O)N[C@@H](Cc2ccc(Br)cc2)C(=O)N2CCC[C@H]2C(=O)N[C@H](Cc2ccc(-c3ccccc3)cc2)C(=O)O)C[C@@H]2CCCC[C@@H]21` [Example 52] ({Malonyl(2,2-Me2,histaminyl)}-Q[hArg]P[dR]L[Aib]H[Ala(piperidin-4-yl)][Sar][Oic][Phe(4-Br)]P[dBip]-OH), the Emax on human Apelin receptor [1] (setting [3]) was found to be 20.4%. Also, the EC50 at human Apelin receptor [1] (setting [4]) is 63.1 nM; on human Apelin receptor [2] it was over 10 µM.
Regarding `CC(C)C[C@H](NC(=O)[C@@H](CCCNC(=N)N)NC(=O)[C@@H]1CCCN1C(=O)[C@H](CCCCNC(=N)N)NC(=O)[C@H](CCC(N)=O)NC(=O)C(C)(C)C(=O)NCc1c[nH]cn1)C(=O)NC(C)(C)C(=O)N[C@@H](Cc1c[nH]cn1)C(=O)N[C@@H](CC1CCNCC1)C(=O)NCC(=O)N1[C@H](C(=O)N[C@@H](Cc2ccc(Br)cc2)C(=O)N2CCC[C@H]2C(=O)N[C@H](Cc2ccc(-c3ccccc3)cc2)C(=O)O)C[C@@H]2CCCC[C@@H]21` [Example 53] (X5-Q[hArg]P[dR]L[Aib]H[Ala(piperidin-4-yl)]G[Oic][Phe(4-Br)]P[dBip]-OH), the Emax on human Apelin receptor [1] (read-out: Emax) amounted to 79.2%. The EC50 is 31.6 nM on human Apelin receptor [1] (read-out: pEC50 (converted)) and over 10 µM at human Apelin receptor [2].
